Results: PMC13053910, “Covalent Protein Inhibitors via Tyrosine and Tryptophan Conjugation with Cyclic Imine Mannich Electrophiles” (Angewandte Chemie (International Ed. in English), 2026)

Tests used:
[1] = Reaction of cyclic imine Mannich or sulfur fluoride electrophiles with Ac-Tyr-NHMe (HPLC, LC/MS); assay type: physicochemical
Protocol: To identify an appropriate warhead, we synthesized or purchased a collection of cyclic imines and incubated them with N‐acetyl‐L‐tyrosine methylamide (Ac‐Tyr‐NHMe) in PBS pH 7 at 37 °C (Table 1). The reactivity was quantified by UV integration on HPLC with LC/MS confirmation of product identity (Figure S1). […] The hydrolysis kinetics of imine 2 were characterized at pD 6 and 7.5 by NMR (Figure S3). […] The Mannich reaction mechanism involves a charged iminium intermediate, and the reaction is frequently catalyzed by Bronsted acids.^[ [36], [37] ^]
(§1) Figure 2 Second‐order rate constants for select cyclic imines and a sulfonyl fluoride with aromatic nucleophiles. Reactions were conducted under pseudo‐first‐order conditions with an excess of one reactant, as indicated. The reduction in the concentration of the limiting reactant was measured at various time points by HPLC analysis.
Figure S2: Second order rate constant determination. Reaction of (A) imine 1 (5 mM) with N-Ac-Tyr-NHMe (100 mM) at 37 °C or (B) at R.T. (C) imine 2 (5 mM) with N-Ac-Tyr-NHMe (100 mM) at 37 °C (D) imine 1 (5 mM) with indole-3-butyrate (100 mM) at 37 °C (E) imine 1 (10 mM) with 1 mM 1H-pyrrole-1-propionate (F) iminium 5 (5 mM) with N-Ac-Tyr-NHMe (100 mM) at 37 °C (G) imine 4 (5 mM) with N-Ac-Tyr-NHMe (100 mM) at 37 °C. (H) imine 11 (5 mM) with N-Ac-Tyr-NHMe (100 mM) at 37 °C. (I) imine 13 (5 mM) with N-Ac-Tyr-NHMe (100 mM) at 37 °C.
5.1 General procedure for determination of second order rate constants N-acetyl-l-tyrosine methyl amide (Ac-Tyr-NHMe) (100 mM) was incubated with 5 mM imine 1 in PBS (pH 7) at 37 °C or R.T..

[2] = Reaction of imine 1 with indole-3-butyrate (tryptophan mimic), rate constant; assay type: physicochemical; details: imine 5 mM, indole-3-butyrate 100 mM, 37 °C
Protocol: as §1, with “analysis. Rates of imine 1 with N‐Ac‐Tyr‐NMe, indole‐3‐butyric acid, and 1H‐pyrrole‐1‐propionic acid and compounds 4, 11, and 13 with N‐Ac‐Tyr‐NMe were measured. […]” for “analysis.”
(§2) To assess the selectivity for tyrosine side chains, we tested the reactivity of 1 with additional compounds, including β‐mercaptoethanol, imidazole, isopropanol, n‐butylamine, propionic acid, 3‐methyl indole, and N‐ethyl pyrrole. […] While partially stable under LC/MS conditions, the N,S‐thioaminal product is readily reversible.^[ [41] ^] […] We determined a second‐order rate constant of 5.9 × 10^−2 M^−1 s^−1 for the reaction of 1 with 1H‐pyrrole‐1‐propionate (Figures 2 and S2). […]

[3] = Reaction of imine 1 with 1H-pyrrole-1-propionate (pyrrolated lysine mimic), rate constant; assay type: physicochemical; details: imine 10 mM, 1 mM 1H-pyrrole-1-propionate
Protocol: as §1, with “analysis. Rates of imine 1 with N‐Ac‐Tyr‐NMe, indole‐3‐butyric acid, and 1H‐pyrrole‐1‐propionic acid and compounds 4, 11, and 13 with N‐Ac‐Tyr‐NMe were measured. […]” for “analysis.”
as §2

[4] = Stability of warheads and inhibitors (solid, PBS, hydrolysis); assay type: physicochemical
Protocol: (§3) To be suitable for chemical probe and therapeutic applications, the warhead should show good stability. In general, we found the iminolactam warheads to be quite stable. Compound 1 was stable as a solid at room temperature for over 3 months. […] After 24‐h in aqueous buffer, compounds were treated with sodium cyanoborohydride. […] The synthetic strategy of in situ formation of imines by periodate treatment was pursued to avoid concerns of warhead reactivity with the ligand itself to either the peptide backbone or the phenoxyphenyl aryl group. This appears to have been unnecessary, at least for the iminolactam warhead. […] The more reactive ester imine may be forming semi‐stable cyclized products with the amide backbone, which have been observed previously with peptide aldehydes.^[ [51], [52] ^] Due to these issues, we selected compound P1b for further characterization.

[5] = target: T1, CBX8 chromodomain (ChD) (Homo sapiens, UniProt Q9HC52); test: Non-directed labeling of CBX8 ChD with cyclic imine 1 (mass spectrometry); assay type: binding; details: 1 (50 µM), CBX8 ChD (50 µM), 10 h
T1 construct: CBX chromodomain constructs (addgene plasmid #25158 (CBX2), and #62514 (CBX8, provided by Cheryl Arrowsmith)); 6His; host or cells: E. coli (BL21 CodonPlus RIL or Rosetta 2)
T1 sequence (Q9HC52 11-69 limits assumed): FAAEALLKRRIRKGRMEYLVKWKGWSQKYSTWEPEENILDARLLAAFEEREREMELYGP
Description: Our interest in this chemistry was to improve inhibitors of the chromodomains (ChD) of the CBX family of epigenetic proteins, which have proven challenging to inhibit selectively or with drug‐like small molecules.^[ [47] ^] The CBX ChDs bind a trimethylated lysine (Kme3) side chain on histone tails via cation‐pi interactions with the aromatic cage in the ChD. Our initial hypothesis was that the aromatic cage tryptophan residues would show increased reactivity to Mannich electrophiles, as they function naturally to donate electron density to the electron‐poor methyl groups of Kme3. To test this, 1 (50 µM) was incubated for 10 h with the CBX8 chromodomain (ChD) (50 µM), and labeling was assessed by mass spectrometry (Figure S11).
Figure S11. […] Cyclic imine 1 ([…]) was incubated with 50 µM CBX8 ChD in PBS (pH=7, 0.02% Tween20) buffer at R.T. for 16 hours overnight. Labeled protein was precipitated using cold MeOH:CHCl3 at the ratio of MeOH:CHCl3:Protein = 3:0.5:1, followed with two methanol washes. Protein pellet was air dried after the last wash resuspensed in water containing 0.1% formic acid and 100 mM ammonium acetate. Protein labeling was characterized by LC/MS (Unmodified CBX8 control is indicated in red, and CBX8 labeled with cyclic imine is indicated in green).

[6] = Stability in bovine serum-containing cell media (LC/MS); assay type: in vitro ADME; details: 20 µM, DMEM with 15% FBS, 24 h, 37 °C
Protocol: as §3
Figure S17. Stability of cyclic imine inhibitors to serum-containing cell culture media. […] The protein fraction was then precipitated with addition of 2 volumes of 1:1 EtOH:acetonitrile and overnight incubation at -20 °C. Samples were centrifuged 16,000 g for 30 minutes. Supernatants were filtered through a 0.5 micro spin filter and evaporated with a speed vacuum. The compounds were resuspended in PBS and analzyed by LC/MS. […] Overlaid spectra of UV at 215 nm are shown and are representative of 3 replicates.

[7] = target: T2, eDHFR wt (Escherichia coli, UniProt P0ABQ4); test: Covalent labeling of eDHFR wild type by LC/MS; assay type: binding, E. coli; details: 10 µM protein, 10 µM compound, overnight, 37 °C
T2 construct: made in house; host or cells: E. coli (BL21 CodonPlus RIL or Rosetta 2), pET-28b(+)

[8] = target: T3, eDHFR L28Y (Escherichia coli, UniProt P0ABQ4, L28Y); test: Covalent labeling of eDHFR L28Y by LC/MS; assay type: binding, E. coli
T3 construct: made in house; host or cells: E. coli (BL21 CodonPlus RIL or Rosetta 2), pET-28b(+)
Description: (§4) Similarly, we prepared eDHFR tyrosine and tryptophan mutants at position 28 to assess labeling with TMP‐Im (Figure 3b). […] We conducted trypsin digestion of the labeled L28Y protein and localized the modification to the intended tyrosine by MS/MS fragmentation (Figure S9A). To assess selectivity over thiols, we tested labeling of the cysteine mutant. […] This labeling was reversed with GSH treatment, which is consistent with the reversibility of thioaminal formation (Figure S10).
(§5) Reactions with thiol mutant L28C were conducted in the presence of 5 mM glutathione and 5 mM TCEP. The observed mass differences of labeled and unlabeled proteins agree with the expected mass change of 428 Da.
Figure S10. Ligand directed labeling in the presence of thiols. […] B) TMP-Im (10 µM) was incubated with eDHFR L28C (10 µM) overnight in the absence (left and center) or presence of 5 mM GSH with 5 mM TCEP. For the center panel, after the labeling reaction, GSH (5 mM) was added and allowed to incubated overnight.

[9] = target: T4, eDHFR L28W (Escherichia coli, UniProt P0ABQ4, L28W); test: Covalent labeling of eDHFR L28W by LC/MS; assay type: binding, E. coli; details: 10 µM protein, 10 µM compound, overnight, 37 °C
T4 construct: made in house; host or cells: E. coli (BL21 CodonPlus RIL or Rosetta 2), pET-28b(+)
Description: as §4, §5

[10] = target: T5, eDHFR L28C (Escherichia coli, UniProt P0ABQ4, L28C); test: Covalent labeling of eDHFR L28C by LC/MS; assay type: binding, E. coli
T5 construct: made in house; host or cells: E. coli (BL21 CodonPlus RIL or Rosetta 2), pET-28b(+)
Description: as §4, §5
Figure S10. Ligand directed labeling in the presence of thiols. A) TMP-Im (10 µM) was incubated with eDHFR L28Y (10 µM) overnight at RT in the absence (left) or presence of 5 mM GSH with 5 mM TCEP. B) TMP-Im (10 µM) was incubated with eDHFR L28C (10 µM) overnight in the absence (left and center) or presence of 5 mM GSH with 5 mM TCEP. For the center panel, after the labeling reaction, GSH (5 mM) was added and allowed to incubated overnight.

[11] = electrophile 5 mM, N‐acetyl‐l‐tyrosine methyl amide 100 mM, PBS pH 7, 37 °C

Compound: O=C1C=NC2CCCCC2N1 (stereo not shown) [compound 1]
- reactivity (t1/2) [1, 11]: 8 ± 0.3 h
- second‐order rate constant k2 with N‐Ac‐Tyr‐NHMe ([1]; pseudo‐first‐order conditions, PBS pH 7, 37 °C): 0.00024 M⁻¹ s⁻¹
- second‐order rate constant k2 with indole‐3‐butyrate [2]: 0.00011 M⁻¹ s⁻¹
- second‐order rate constant k2 with 1H‐pyrrole‐1‐propionate [3]: 0.059 M⁻¹ s⁻¹
- stable as a solid at room temperature ([4]; solid, room temperature): over 3 months
- labeling of CBX8 ChD by imine alone [5]: distribution of unlabeled, singly, doubly, and triply labeled protein indicative of random labeling

Compound: O=S1(=O)N=Cc2ccccc21 [compound 11]
- reactivity (t1/2) [1, 11]: 2.4 ± 0.1 h

Compound: COc1cc(Cc2cnc(N)nc2N)cc(OC)c1OCCCCN1CCN=CC1=O [TMP‐Im]
- stability to long‐term incubation in PBS ([4]; 24 h in aqueous buffer, then sodium cyanoborohydride, mass spectrometry): stability over the 24 h
- stability in bovine serum‐containing cell media [6]: minimal loss of compounds to the precipitated protein fraction or degradation
- stability in bovine serum‐containing cell media ([6]; listed as TMP-Im): no degradation or loss to the protein fraction
- covalent labeling of eDHFR wild type [7]: no labeling
- covalent labeling of eDHFR L28Y ([8]; 10 µM protein, 10 µM compound, overnight, 37 °C): covalent labeling
- effect of GSH on labeling of eDHFR L28Y ([8]; presence of 5 mM GSH): only a slight reduction in reaction conversion
- covalent labeling of eDHFR L28W [9]: covalent labeling
- labeling of eDHFR L28C cysteine mutant ([10]; absence of additional thiols, TCEP as reductant): A small amount of labeling
- labeling of eDHFR L28C cysteine mutant ([10]; in the presence of 5 mM glutathione (GSH) and 5 mM TCEP): no detectable labeled protein

Compound: 2-hydroxyquinoxaline [compound 4]
- reactivity (t1/2) ([1]; buffer, pH 7): 6.1 ± 0.2 h

Compound: O=C(O)c1ccc(OS(=O)(=O)F)cc1 [compound 14, reference compound]
- reactivity (t1/2) [1, 11]: ∼48 h

Compound: O=C1C=N[C@H]2CCCC[C@@H]2O1 [compound 2]
- reactivity (t1/2) ([1]; electrophile 5 mM, Ac-Tyr-NHMe 100 mM, PBS pH 7, 37 °C, competing hydrolysis): ∼40 mins ^b)
